From PMC5348404, “Systematic approach identifies RHOA as a potential biomarker therapeutic target for Asian gastric cancer” (Oncotarget, 2016)

Target: T1, RHOA (Homo sapiens, UniProt P61586)
T1 construct: commercial RHOA protein (Sigma-Aldrich SRP5127), immobilized on CMDH gold chip
Assay: surface plasmon resonance, immobilized RHOA (Reichert SR7500DC)
Format: binding

T1 sequence (P61586 whole entry): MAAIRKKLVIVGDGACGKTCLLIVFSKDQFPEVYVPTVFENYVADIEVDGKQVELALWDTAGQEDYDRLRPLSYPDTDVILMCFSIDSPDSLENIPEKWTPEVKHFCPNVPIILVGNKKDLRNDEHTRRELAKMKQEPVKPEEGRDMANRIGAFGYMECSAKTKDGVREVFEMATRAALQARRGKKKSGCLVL

Row | SMILES | Kd [µM]
1 | O=S(=O)(N/N=C/c1ccc2c(c1)OCO2)c1ccccc1 [JK-121] | 67 ± 3
2 | O=C(N/N=C/c1ccc2c(c1)OCO2)c1ccccc1 [JK-122] | 6.9 ± 0.4
3 | O=C(N/N=C/c1ccc2c(c1)OCO2)c1ccncc1 [JK-123] | 16.3 ± 0.4
4 | O=C(N/N=C/c1ccc2c(c1)OCO2)c1ccc(O)cc1 [JK-124] | 44 ± 2
5 | CC(=O)N/N=C/c1ccc2c(c1)OCO2 [JK-125] | 8.7 ± 6
